Test system: NF-κB
Assay: NF-κB luciferase reporter assay in LPS-stimulated RAW 264.7 macrophages
Type: cell-based
Settings: Mus musculus, RAW264.7; RAW 264.7 cells stably expressing 3× NFκB response element luciferase reporter; 2 hour pretreatment, 200 ng/ml LPS for 3 hours; 6 dose point titrations in triplicate
Experimental: RAW 264.7 cells stably expressing a 3× NFκB response element-drive luciferase reporter were seeded into 96 well plates in sera-free medium (Optimen) 18 hours prior to compound application. Compounds of the invention were prepared by first making 100 mM stock solutions in EtOH. Stock solutions were then diluted 1:100 in low LPS FBS (Gemini BenchMark 100-106), mixed vigorously and allowed to incubate at room temperature for 30 minutes. 1:2 serial dilutions were then made in FBS supplemented with 1% EtOH, mixed vigorously, and again allowed to incubate at room temperature for 30 minutes before adding to RAW 264.7 reporter cells (final concentrations: 10% FBS, 100 uM highest compound dilution, 0.1% EtOH) for a 2 hour pretreatment prior to stimulation with LPS. Cells were then stimulated with 200 ng/ml LPS or vehicle control for 3 hours in the presence of the compounds of the invention. A set of six vehicles was left unstimulated with LPS in order to measure the assay floor. […] After the 3 h incubation period with LPS, cell viability was measured by reading fluorescence (excitation 550 nm, emission 595 nm) with a Perkin Elmer Victor V plate reader. […] Luciferase activity was measured with the Perkin Elmer Victor V plate reader. NF-κB activity was expressed as a percent of the vehicle control wells (stimulated with LPS). […]

`CC/C=C\C/C=C\C/C=C\C/C=C\C/C=C\C/C=C\CCC(=O)N1C[C@H](C)C[C@@](C)(O)[C@H](O)[C@@H](C)[C@H](O)[C@@H](C)C(=O)O[C@H](CC)[C@@](C)(O)[C@H](O)[C@H]1C` [Ia-3, (2R,3S,4R,5R,8R,10R,11R,12S,13S,14R)-6-((4Z,7Z,10Z,13Z,16Z,19Z)-docosa-4,7,10,13,16,19-hexaenoyl)-2-ethyl-3,4,10,11,13-pentahydroxy-3,5,8,10,12,14-hexamethyl-1-oxa-6-azacyclopentadecan-15-one] gave an IC50 of 18 µM.

Source: US20130045939A1, “FATTY ACID MACROLIDE DERIVATIVES AND THEIR USES” (CATABASIS PHARMACEUTICALS, INC., priority 2010, published 2013)
